Experimental data: US20200281897A1, “INDAZOLE DERIVATIVES FOR CANCER TREATMENT” (Servicio Andaluz de Salud, priority 2016, published 2020)

Legend:
[1] = test system: myeloma cell lines; experiment: MTT cell viability assay, average over all myeloma cell lines; type: cell-based, human; details: average over the six myeloma cell lines, MTT, 18 hours; read-out: IC50 average
Description: (§1) In vitro studies were carried out using six different human MM cell lines, U266, RPMI8226, MM1S, MM1R, U266-LR7, and RPMI-LR5. For ex vivo assays, human primary cells from healthy donors and MM patients were used (Table 1). Human MM cell lines U266, RPMI8226, and MM1.S were acquired from ATCC and lines U266-LR7, RPMI-LR5, and MM1.R were kindly provided by Dr. Enrique Ocio (Hospital Universitario de Salamanca, Spain). The primary cells were obtained from bone marrow (BM) aspirates or peripheral blood (PB) samples, and the peripheral blood mononuclear cells (PBMCs) were isolated by Ficoll-Hypaque centrifugation and washed twice in phosphate buffered saline (PBS) containing 1% BSA. Hematopoietic stem cells and B and T lymphocytes were isolated from healthy PB donors by positive immunomagnetic separation using human MACS CD34+, CD19+, and CD3+ microbeads, respectively. MM plasma cells were obtained from the bone marrow (BM) of patients with an infiltration of cells of more than 30% (Table 1). The MM plasma cells were identified using CD138+, and were then distinguished from the other cell populations by flow cytometry using a suitable combination of antibodies: anti-human CD64-FITC, CD34-PE, CD56-APC, CD38-APC-H7, and CD45-Pacific Blue antibodies (BD Biosciences, San Jose, Calif.). All the cell lines were cultured in RPMI-1640 supplemented with 10% fetal bovine serum (FBS) and 1% penicillin/streptomycin, as recommended by the supplier. For human primary cells, the concentration of FBS was up to 20%.
(§2) The MM cell lines and primary cells were exposed to different doses of indazole compounds, and viability was evaluated at 18, 48, and 72 hours. Pretreatments with the ceramide synthesis inhibitor (FB1), pan-caspase (ZVAD-FMK), and CB antagonists (PGN-8, PGN-37, and PGN-70) were performed for 30 minutes, and then the cells were incubated with indazole compound WIN-55 up to 18 hours. Cell viability was determined using the MTT assay Cell Counting Kit-8 (Dojindo, Kumamoto, Japan) according to the manufacturer's instructions.

[2] = test system: U266; experiment: Western blot and immunofluorescence in U266 cells; type: cell-based, human; details: U266, 50 μM
Description: The extracts for Western blot were taken after 0, 2, 6, 18, and 24 hours. The cells were lysed according to Gilbert et al., 2002. (J Immunol Methods. 2002, 271:185-201), by adding 2% ASB-14 (Calbiochem, Beeston, United Kingdom) to the isotonic lysis buffer. The protein concentration was determined by Pierce® Microplate BCA Protein Assay kit-Reducing Agent Compatible (Pierce, Rockford, Ill.). The samples were subjected to SDS/PAGE in AnykD precast gels (Bio Rad, Hercules, Calif.) and transferred to PVDF membranes using Trans-Blot® Turbo™ System (Bio-Rad). The membranes were incubated over night at 4° C. with primary antibody in 0.05% Tween 20-Tris buffered saline (TTBS) then with the suitable secondary antibody, and they were subjected to chemiluminescence detection. As a control condition, the cells were treated with DMSO (<0.15%) in RPMI 1640 medium from Gibco (Gaithersburg, Md.).
The antibodies for caspase-2, -8, -9, active caspase-3, -p-Akt (phospho T308), p-Erk (T202+Y204), -p-p38MAPK (phospho T180+Y182), -p-JNK (phospho T183+Y185), -SPT, and the CB1 and CB2 receptors were from Abcam, anti-MCL-1 and -Bcl-xL were from Santa Cruz Biotechnology, anti-PARP was from Cell Signaling Technology, anti-Bax and -Bak were from BD Biosciences. Anti-beta-tubulin was from Sigma-Aldrich. All the horseradish peroxidase (HRP)-conjugated secondary antibodies used were from Jackson ImmunoResearch and produced in a donkey to prevent the possible cross-reactivity when several tests were performed.
The cells treated for 6 hours with indazole compounds were collected and placed on a slide. Immunofluorescence staining was performed as described previously by Vielhaber et al. 2001 (Glycobiology. 2001, 11:451-7) using anti-ceramide as the primary antibody. The ceramide antibody was obtained from Sigma-Aldrich, and the Alexa-488-conjugated secondary antibody was obtained from Abcam. As a control condition, the cells were treated with DMSO (<0.15%) in RPMI 1640 medium from Gibco (Gaithersburg, Md.).

[3] = test system: HL60; experiment: Western blot and immunocytofluorescence in HL60 cells; type: cell-based, human
Text: The detailed methodology for analyzing mitochondrial membrane potential (APm), Western Blot analysis, and immunocytofluorescence analysis has been described elsewhere 29

[4] = test system: RPMI; experiment: Cell viability by flow cytometry (annexin V/7-AAD), RPMI; type: cell-based, human; details: 18 hours
Description: (§3) The cell viability of the MM cell lines and primary cells from healthy PB donors was also evaluated by flow cytometry using 7-AAD/Annexin V. Patient bone marrow (BM) cells were analyzed using 7-AAD with a combination of monoclonal antibodies against myeloma-associated antigens (anti-CD56-APC, anti-CD45-Pacific Blue, and anti-CD38-APC-H7 [BD Biosciences]) and antibodies for distinguishing the granulomonocytic population (anti-CD64-FITC) and lymphocytic population (anti-CD45-Pacific Blue). The cells were acquired by means of FACSCanto II flow cytometer (BD Biosciences) and analyzed using Infinicyt™ Software (Cytognos, Spain).

[5] = test system: RPMI-LR5; experiment: MTT cell viability assay, myeloma cell line RPMI-LR5; type: cell-based, human; details: RPMI-LRS, MTT, 18 hours, doses 0-50 μM; read-out: IC50, cell viability
Description: as §1, §2

[6] = test system: HL60 cells; experiment: Murine model of AML (HL60 in NSG mice); type: in vivo; details: 5 mg/kg/day
Text: The NOD/scid/IL-2R gammae null (NSG) mice were acquired from Charles River Laboratories International (L'Arbresle, France) and received food and water ad libitum, under specific pathogen-free conditions. When the mice were 8-12 weeks old, AML was induced by intravenous inoculation of the HL60 cell line, and the mice were monitored to confirm progression of the disease by means of studying weight loss and detecting human CD45+ cells in bone marrow BM aspirates and flow cytometry analysis. Once the presence of leukemia cells was confirmed, treatment with a vehicle, WIN-55 212 cannabinoid was administered at a dose of 5 mg/kg/day or cytarabine (ARA-C) at 50 mg/kg for 5 days.

[7] = test system: myeloma plasma cells (MPCs, CD38+); experiment: Ex vivo viability of myeloma plasma cells of MM patients by flow cytometry; type: cell-based, human; details: 18 hours, six MM patients
Description: In vitro studies were carried out using six different human MM cell lines, U266, RPMI8226, MM1S, MM1R, U266-LR7, and RPMI-LR5. For ex vivo assays, human primary cells from healthy donors and MM patients were used (Table 1). Human MM cell lines U266, RPMI8226, and MM1.S were acquired from ATCC and lines U266-LR7, RPMI-LR5, and MM1.R were kindly provided by Dr. Enrique Ocio (Hospital Universitario de Salamanca, Spain). The primary cells were obtained from bone marrow (BM) aspirates or peripheral blood (PB) samples, and the peripheral blood mononuclear cells (PBMCs) were isolated by Ficoll-Hypaque centrifugation and washed twice in phosphate buffered saline (PBS) containing 1% BSA. […]
as §3

CS(=O)(=O)O.Cc1c(C(=O)c2cccc3ccccc23)c2cccc3c2n1[C@H](CN1CCOCC1)CO3 [WIN-55, (R)-(+)-[2,3-dihydro-5-methyl-3-(4-morpholinomethyl)-pyrrolo[1,2,3]-1,4-benzoxazin-6-yl]-1-naphthalenylmethanone mesylate]
IC50 [1]: 14.6 µM | caspase-3 activation (cleaved forms, Western blot) [2]: induction of caspase-3 activation | expression of endoplasmic reticulum stress marker proteins CHOP, ATF-4, p-IRE1, XBP-1s [2]: slight but sustained decrease | expression of ceramides (immunofluorescence) ([2]; 6 hours): considerable increase in the expression of ceramides | expression of p-Akt (phospho-T308) ([2]; early points in time, decrease at later times): significant overexpression of p-Akt | expression level of serine-palmitoyltransferase (SPT) ([2]; maximum at 18 hours): increased | expression of Bax (immunocytofluorescence) ([3]; HL60): considerable increase in Bax | caspase activation pattern (Western blot) ([3]; HL60, 50 μM, 2, 6, 18 and 24 hours): activation of various caspases | IC50 [4]: 12.7 µM | IC50 [5]: 16.1 µM | number of HL60 cells in bone marrow [6]: vast reduction | survival ([6]; versus control group and ARA-C group): significant increase in survival | decrease in cell viability of MPCs (CD38+) ([7]; 20 μM): 70% | decrease in cell viability of MPCs (CD38+) ([7]; 50 μM): 85%
